The series in a line: Metabolic stability in human liver microsomes at 1 uM in presence of NADPH regenerating system measured up to 60 mins by UFLC-MS/MS analysis. The format is ADME, Microsome. The note with it: 1 h. On the technique in general: Liver microsomes are a subcellular fraction often used to study metabolism.

Our source for the Stabilty values is ChEMBL document CHEMBL4842387, “Discovery of a Series of Hydroxamic Acid-Based Microtubule Destabilizing Agents with Potent Antitumor Activity” (J Med Chem, 2021).

Structures are written as SMILES.

For the compound `COc1ccc(N(C)c2nc(C)nc3ccccc23)cc1OCC(=O)NO`, the Stabilty result was “Unstable”.
